The subject of experiment [1] is Embryonic fibroblasts (MEFs) from wild-type and synoviolin gene-deficient mice. Put plainly: Effect of a γ-secretase inhibitor on cell proliferation activity (Alamer Blue) in wild-type and synoviolin-deficient MEFs. It is filed as cell-based, mouse. As to conditions: MEFs 1×10^3 cells/well, treated 24 hours, Alamer Blue absorbance after 2 hours; Syno −/− compared with Syno +/+ (FIG. 5). The method, then: Since there are ethical objections to sensitivity measurement tests using the brains of Alzheimer's patients, another evaluation system needs to be used for evaluating the sensitivity of the secretase inhibitor. The inventors therefore used an evaluation system in which cells were treated with a secretase inhibitor and cell proliferation was used as the marker of secretase inhibition. There are no particular limits on the type of secretase here, and examples include β-secretase and γ-secretase. Consequently, the secretase inhibitor can be either a β-secretase inhibitor or a γ-secretase inhibitor. There are no particular limits on the secretase inhibitor, and examples include L-685,458 (Peptide Institute), (3,5-Difluorophenylacetyl)-Ala-Phg-OBu^t [DAPT] (Peptide Institute), Lys-Thr-Glu-Glu-Ile-Ser-Glu-Val-Asn-Sta-Val-Ala-Glu-Phe (Peptide Institute), Z-Leu-Leu-Nle-CHO (Wako) and the like.
Secretase activity is judged to have been inhibited when cell proliferation activity is suppressed. […]
Embryonic fibroblasts (MEFs) obtained from synoviolin gene-introduced mice (wild-type mice) and synoviolin gene-deficient mice were inoculated to 1×10^3 cells/well on 96-well plates, and cultured overnight. After culture the cells were treated with a γ-secretase inhibitor (Z-Leu-Leu-Nle-CHO, Wako) and cultured for 24 hours, after which Alamer Blue was added and absorbance was measured after 2 hours.

Experiment [2] deals with T1, FLAG-tagged synoviolin (human, UniProt Q86TM6 1-617).
T1 construct: not shown: FLAG tag
Put plainly: co-immunoprecipitation (anti-HA or anti-FLAG) and Western blotting from HEK293T cells. The method, then:
An HA tag was attached to the N-terminal of this gene, which was inserted into a pcDNA3 vector. Next, Ha-tagged Herp, Herp(-bind) and a blank vector were each strongly expressed together with FLAG-tagged synoviolin in HEK293T cells. After 24 hours whole cell extract (WCE) was extracted, expression of each protein was confirmed, and immunoprecipitation was performed with anti-HA antibodies or anti-FLAG antibodies.
(Immunoblotting shows a protein as a band on a membrane.)

Non-standard residues stand in square brackets, D forms with d. Residues, ends and D or L forms follow the SMILES beside them. *: point of attachment. Nle = CCCC[C@H](N)C(=O)O; Cbz = O=C(OCc1ccccc1)*

T1 sequence (Q86TM6 whole entry E545G): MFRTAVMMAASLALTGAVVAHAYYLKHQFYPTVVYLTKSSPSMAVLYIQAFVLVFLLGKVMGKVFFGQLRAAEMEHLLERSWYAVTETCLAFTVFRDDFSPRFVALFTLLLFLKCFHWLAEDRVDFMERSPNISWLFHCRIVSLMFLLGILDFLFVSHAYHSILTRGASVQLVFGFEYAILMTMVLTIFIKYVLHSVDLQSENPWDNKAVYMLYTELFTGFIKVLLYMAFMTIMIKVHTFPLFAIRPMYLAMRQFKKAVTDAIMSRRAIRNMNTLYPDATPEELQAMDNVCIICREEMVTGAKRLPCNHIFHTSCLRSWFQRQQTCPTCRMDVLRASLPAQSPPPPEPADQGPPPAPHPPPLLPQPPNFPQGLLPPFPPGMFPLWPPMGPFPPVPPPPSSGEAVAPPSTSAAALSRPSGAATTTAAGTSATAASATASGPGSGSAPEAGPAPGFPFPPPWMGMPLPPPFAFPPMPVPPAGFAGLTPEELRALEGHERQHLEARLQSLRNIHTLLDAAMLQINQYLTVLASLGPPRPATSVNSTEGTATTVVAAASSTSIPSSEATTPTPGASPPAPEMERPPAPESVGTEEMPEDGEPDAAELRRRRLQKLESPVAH

Regarding `CCCC[C@@H](C=O)NC(=O)[C@H](CC(C)C)NC(=O)[C@H](CC(C)C)NC(=O)OCc1ccccc1` [Z-Leu-Leu-Nle-CHO] (Cbz-Leu-Leu-[Nle]-aldehyde), the “effect of the γ-secretase inhibitor on cell proliferation activity” value in experiment [1] is on record as “greater in the cells derived from synoviolin-deficient mice than in the cells derived from wild-type mice”.

B1: HA-tagged Herp(-bind) (other)
chain: MESETEPEPVTLLVKSPNQRHRDLELSGDRGWSVGHLKAHLSRVYPERPRPEDQRLIYSGKLLLDHQCLRDLLPKQEKRHVLHLVCNVKSPSKMPEINAKVAESTEEPAGSNRGQYPEDSSSDGLRQREVLRNLSSPGWENISRPEAAQQAFQGLGPGFSAQEIPVVSAPAPAPIHNQFPAENQPANQNAAPQVVVNPGANQNLRMNAQGGPIVEEDDEINRDWLDWTYSAATFSVFLSILYFYSSLSRFLMVMGATVVMYLHHVGWFPFRPRPVQNFPNDGPPPDVVNQDPNNNLQEGTDPETEDPNHLPPDRDVLDGEQTSPSFMSTAWLVFKTFFASLLPEGPPAIAN
notes: not shown: HA tag at the N-terminal
B1: the binding result in experiment [2] is “no binding”.
